Measurements taken from patent EP1301165B1, “USE OF AN ALLOMELANIN FOR THE TREATMENT OF INFLAMMATION OR IRRITANCY CAUSED BY DHA AND/OR A SURFACTANT” (Croda Chemicals International Limited, priority 2000, dated 2002).

Experiments:
Water solubility = assay type: physicochemical
From the text: In contrast, conventional melanins are virtually insoluble. Our melanin derived from caffeic acid has a solubility of about 220g/l. Since caffeic acid has a solubility of below 1g/l, and polymerisation generally leads to a reduction in solubility, this is quite remarkable.

[1] = Fragrance stabilisation test (eau de toilette, daily 37°C / 4°C / sunlight cycle for 7 days, aroma assessed); conditions: daily cycle repeated for 7 days
Procedure: To test the stability of a fragrance in the form of an eau de toilette ("EDT"), we use aliquots of the EDT to which are added two or more concentrations of our melanin ("EDT'') and, as reference examples, two concentrations of BHT (butyrated hydroxytoluene, a known antioxidant used in cosmetics). A further aliquot of the original eau de toilette is used as a control. Test samples are made in clear glass bottles that are half filled with the test samples. This is to allow some penetration of UV light and sufficient gas in the headspace to allow oxidative deterioration of the fragrance to occur.
Samples are stored at 37°C overnight, then are cooled to 4°C and then allowed to stand in direct sunlight, for the rest of the day, being returned to 37°C. In addition bottles are opened before and after the 37°C incubation. This daily cycle is repeated for 7 days and the aromas of each assessed.

skin = experiment: Surfactant sensitivity: skin irritation by 24 hour SLES patch, skin colour by Chroma Meter; assay type: in vivo, human
Procedure: The effectiveness of our melanin in reducing skin irritation due to a surfactant was investigated. Two human subjects were used. The effect of applying to skin for 24 hours a patch containing a 70% solution of sodium lauryl ether sulphate ('SLES') was compared with the effect of applying an identical patch also containing 0.3% of our melanin ('M'). The colour of the treated skin was monitored for several days using a Chroma Meter. The changes in degrees of redness are tabulated below.

Q: Which solubility (Water solubility) does the source give for `O=C(O)/C=C/c1ccc(O)c(O)c1` [caffeic acid] here?
A: < 1000 µg/mL

Q: Which “fragrance stability (aroma)” value [1] does the source give for `Cc1cc(C(C)(C)C)c(O)c(C(C)(C)C)c1` [BHT, butyrated hydroxytoluene] here?
A: markedly superior to the control

Q: For sodium lauryl ether sulphate [SLES], which “Redness Change” value (skin; Subject 1, Day 1, patch applied for 24 hours) is on record?
A: +6.3

Q: What about the “Redness Change” value (skin; Subject 1, Day 2) of the same molecule?
A: +4.2

Q: What about the “Redness Change” value (skin; Subject 1, Day 6) of the same molecule?
A: +0.3

Q: And the “Redness Change” value (skin; Subject 2, Day 1, patch applied for 24 hours)?
A: +3.5

Q: What about the “Redness Change” value (skin; Subject 2, Day 2) of the same molecule?
A: +2.3

Q: And the “Redness Change” value (skin; Subject 2, Day 7)?
A: +0.6
